Like-named read-outs stand apart in the source and are kept apart here.
Assays:
human cathepsin K = target: T1, human cathepsin K (Homo sapiens, UniProt P43235); assay: Assay of cathepsin K inhibitory activity in vitro; assay type: biochemical; conditions: IC50 against human cathepsin K; substrate Z-Phe-Arg-AMC 10 μM; 25° C.; read-out: Cat-K
T1 sequence (P43235 115-329): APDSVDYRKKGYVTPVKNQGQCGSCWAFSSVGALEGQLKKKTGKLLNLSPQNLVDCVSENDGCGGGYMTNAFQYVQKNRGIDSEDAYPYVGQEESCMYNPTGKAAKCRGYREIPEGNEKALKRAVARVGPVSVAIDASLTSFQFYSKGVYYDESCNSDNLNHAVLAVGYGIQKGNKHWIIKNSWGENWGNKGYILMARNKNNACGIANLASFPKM
Procedure: Assay Method of Cathepsin K Inhibitory Activity In Vitro
Using 45000-fold diluted cathepsin K solution and 10 μM Z-Phe-Arg-AMC as substrate, the test compound and cathepsin K solution were incubated at 25° C. for 15 min in a 15 μL reaction system according to the optimized experimental condition.

human cathepsin L = human cathepsin L (Homo sapiens, UniProt P07711); assay: Assay of cathepsin L inhibitory activity in vitro; assay type: biochemical; conditions: IC50 against human cathepsin L; substrate Z-Phe-Arg-AMC 10 μM; 25° C.; read-out: Cat-L
Procedure: Assay Method of Cathepsin L Inhibitory Activity In Vitro
0.01 ng/μL was the final concentration of Cathepsin L in the enzyme reaction, and Z-Phe-Arg-AMC with the final concentration of 10 μM was added into the reaction system as substrate, in the reaction system the test compound and enzyme had been incubated at 25° C. for 15 min.

[1] = Pharmacokinetic test in SD rats (iv and oral gavage), plasma by LC/MS/MS; assay type: in vivo; conditions: rat, male SD rats; for AUC(0-inf): read-out: AUCINF h * ng/ml; for AUC(0-t): read-out: AUClast h * ng/ml; for half-life: read-out: T1/2 h (converted); for Vd: read-out: Vss; for bioavailability: po 5 mg/kg vs iv 1 mg/kg
Procedure: Healthy adult male SD rats were divided into groups with administration of compound by intravenous injection and oral gavage.
2. Preparation of the Test Compound Solution:
A certain amount of the test compound was weighed, and then mixed with 5% DMSO, 10% Kolliphor HS15 and 85% Saline to prepare a clarified solution.
3. Administration and Sample Collection:
All groups were fasted for 12 hours before administering, free drinking, and fed at 3 hours after administration. Each group was administered with test compound by vein intravenous (iv, 1 mg/kg) in the hind foot and oral gavage (po, 5 mg/kg) independently. The blood samples were collected from tail vein at the time point of 0 h, 0.083 h, 0.25 h, 0.5 h, 1 h, 2 h, 4 h, 6 h, 8 h and 24 h after administration and the amount of blood sample collected at each time point was about 200-400 μL. The blood samples collected at each time point were independently placed in K2EDTA anticoagulation tube and preserved in the incubator containing ice packs. The plasma of each blood sample above was separated by centrifugation at 4600 r/min at 4° C. for 5 min in 15 minutes after collecting. The plasma samples were preserved at −80° C. for measuring.
The content of the compound in plasma of rat after administration was determined by LC/MS/MS method.

human cathepsin B = human cathepsin B (Homo sapiens, UniProt P07858); assay: Assay of cathepsin B inhibitory activity in vitro; assay type: biochemical; conditions: IC50 against human cathepsin B; substrate Z-Phe-Arg-AMC 10 μM; 25° C.; read-out: Cat-B
Procedure: Assay Method of Cathepsin B Inhibitory Activity In Vitro
0.01 ng/μL was the final concentration of Cathepsin B in the enzyme reaction, and Z-Phe-Arg-AMC with the final concentration of 10 μM was added into the reaction system as substrate, in the reaction system the test compound and enzyme had been incubated at 25° C. for 15 min.

human cathepsin S = human cathepsin S (Homo sapiens, UniProt P25774); assay: Assay of cathepsin S inhibitory activity in vitro; assay type: biochemical; conditions: IC50 against human cathepsin S; substrate Z-VVR-AMC 20 μM; 25° C.; read-out: Cat-S
Procedure: Assay Method of Cathepsin S Inhibitory Activity In Vitro
0.25 ng/L was the final concentration of Cathepsin S in the enzyme reaction, and Z-VVR-AMC with the final concentration of 20 μM was added into the reaction system as substrate, in the reaction system the test compound and enzyme had been incubated at 25° C. for 15 min.

human cathepsin L, sequence (P07711 114-333): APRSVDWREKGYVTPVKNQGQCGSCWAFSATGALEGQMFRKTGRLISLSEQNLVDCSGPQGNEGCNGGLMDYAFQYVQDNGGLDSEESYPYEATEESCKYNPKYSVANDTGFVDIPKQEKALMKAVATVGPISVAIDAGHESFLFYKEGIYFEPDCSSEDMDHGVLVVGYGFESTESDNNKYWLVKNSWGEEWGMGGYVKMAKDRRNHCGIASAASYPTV
human cathepsin S, sequence (P25774 115-331): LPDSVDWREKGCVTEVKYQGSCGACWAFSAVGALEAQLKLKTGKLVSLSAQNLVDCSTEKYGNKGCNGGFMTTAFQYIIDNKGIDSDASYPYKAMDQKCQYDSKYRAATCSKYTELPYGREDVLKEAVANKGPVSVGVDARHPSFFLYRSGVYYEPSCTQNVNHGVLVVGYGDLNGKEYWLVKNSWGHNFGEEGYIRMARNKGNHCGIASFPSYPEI

Molecule `Cc1cc(-c2ccc3cc(C(=O)NC4(C(=O)NC5(C#N)CC5)CCC(F)(F)CC4)oc3c2)ccc1-n1cncn1` [Example 43, N-(1-((1-cyanocyclopropyl)carbamoyl)-4,4-difluorocyclohexyl)-6-(3-methyl-4-(1H-1,2,4-triazol-1-yl)phenyl)benzofuran-2-carboxamide] has an IC50 (human cathepsin K) of 0.69 nM, an IC50 (human cathepsin L) greater than 10000 nM and a Cmax ([1]; iv 1 mg/kg) of 382 ng/mL. For the same molecule, the Tmax ([1]; iv 1 mg/kg) was 0.78 h, the clearance ([1]; iv 1 mg/kg) was 4.13 mL/min/kg and the AUC(0-inf) ([1]; iv 1 mg/kg) was 4190 ng·h/mL. It also gave an AUC(0-t) ([1]; iv 1 mg/kg) of 3800 ng·h/mL, a half-life ([1]; iv 1 mg/kg) of 7.1 h and a Vd ([1]; iv 1 mg/kg) of 2.27 L/kg. The Cmax ([1]; po 5 mg/kg) was 390 ng/mL, the Tmax ([1]; po 5 mg/kg) was 4 h and the bioavailability [1] was 72.1%. For the same molecule, the AUC(0-inf) ([1]; po 5 mg/kg) was 15200 ng·h/mL, the AUC(0-t) ([1]; po 5 mg/kg) was 14300 ng·h/mL and the half-life ([1]; po 5 mg/kg) was 5.84 h. For the same molecule, the IC50 (human cathepsin B) was 440 nM and the IC50 (human cathepsin S) was 1340 nM.

In the case of `N#CC1(NC(=O)C2(NC(=O)c3cc4ccc(-c5ccc(-n6cncn6)c(OC(F)F)c5)cc4o3)CCC(F)(F)CC2)CC1` [Example 53, N-(1-((1-cyanocyclopropyl)carbamoyl)-4,4-difluorocyclohexyl)-6-(3-(difluoromethoxy)-4-(1H-1,2,4-triazol-1-yl)phenyl)benzofuran-2-carboxamide], the IC50 (human cathepsin K) is reported as 1.4 nM, the IC50 (human cathepsin L) is reported as greater than 10000 nM and the Cmax ([1]; iv 1 mg/kg) is reported as 798 ng/mL. For the same molecule, the Tmax ([1]; iv 1 mg/kg) was 0.083 h, the clearance ([1]; iv 1 mg/kg) was 2.91 mL/min/kg and the AUC(0-inf) ([1]; iv 1 mg/kg) was 5740 ng·h/mL. The AUC(0-t) ([1]; iv 1 mg/kg) was 5470 ng·h/mL, the half-life ([1]; iv 1 mg/kg) was 5.9 h and the Vd ([1]; iv 1 mg/kg) was 1.2 L/kg. For the same molecule, the Cmax ([1]; po 5 mg/kg) was 2230 ng/mL, the Tmax ([1]; po 5 mg/kg) was 2.67 h and the bioavailability [1] was 75.6%. For the same molecule, the AUC(0-inf) ([1]; po 5 mg/kg) was 21700 ng·h/mL, the AUC(0-t) ([1]; po 5 mg/kg) was 21100 ng·h/mL and the half-life ([1]; po 5 mg/kg) was 4.66 h. For the same molecule, the IC50 (human cathepsin B) was 2500 nM and the IC50 (human cathepsin S) was greater than 10000 nM.

Source: patent publication US10494364B2, “Cathepsin K inhibitors and application thereof” (SUNSHINE LAKE PHARMA CO., LTD., priority 2015, dated 2019)
